Reference: patent publication US20100120700A1, “METHODS AND COMPOSITIONS FOR TREATING CERVICAL CANCER” (priority 2000, published 2010)
Where “and” joins values, the source holds several entries; their conditions need not be identical. Equal entries are not always repeated.

Key:
Experiment in all cases: G assay PDZ-PL binding
[1] = biological target: T1, PIST domain 1 (Homo sapiens, UniProt Q9HD26); conditions: peptide 10 uM, protein 5
T1 construct: made in house; host or cells: E. coli (DH5alpha or BL-21)
Method: (§1) (1) A PDZ-domain polypeptide is bound to a surface, e.g. a protein binding surface. In a preferred embodiment, a GST/PDZ fusion protein containing one or more PDZ domains is bound to a polystyrene 96-well plate. […] In one embodiment, the GST/PDZ fusion protein is bound via an anti-GST antibody that is coated onto the 96-well plate. Adequate binding to the plate can be achieved when: • a. 100 uL per well of 5 ug/mL goat anti-GST polyclonal antibody (Pierce) in PBS is added to a polystyrene 96-well plate (e.g., Num Polysorb) at 4° C. for 12 hours. • b. The plate is blocked by addition of 200 uL per well of PBS/BSA for 2 hours at 4° C. • c. The plate is washed 3 times with PBS. • d. 50 uL per well of 5 ug/mL GST/PDZ fusion protein) or, as a negative control, GST polypeptide alone (i.e. not a fusion protein) in PBS/BSA is added to the plate for 2 hours at 4° C. • e. The plate is again washed 3 times with PBS. […]
(§2) (3) The binding of the biotinylated peptide to the GST/PDZ fusion protein surface can be detected using a variety of methods and detectors known to one of skill in the art. In one embodiment, 100 uL per well of 0.5 ug/mL streptavidin-horse radish peroxidase (HRP) conjugate dissolved in BSA/PBS is added and allowed to react for 20 minutes at 4° C. The plate is then washed 5 times with 50 mM Tris pH 8.0 containing 0.2% Tween 20, and developed by addition of 100 uL per well of HRP-substrate solution (TMB, Dako) for 20 minutes at room temperature (RT). The reaction of the HRP and its substrate is terminated by addition of 100 uL per well of 1M sulfuric acid, and the absorbance of each well of the plate is read at 450 nm.
(§3) (4) Specific binding of a PL peptide and a PDZ domain polypeptide is determined by comparing the signal from the well(s) in which the PL peptide and PDZ domain polypeptide are combined, with the background signal(s). The background signal is the signal found in the negative control(s). Typically a specific or selective reaction will be at least twice background signal, more typically more than 5 times background, and most typically 10 or more times the background signal. In addition, a statistically significant reaction will involve multiple measurements of the reaction with the signal and the background differing by at least two standard errors, more typically four standard errors, and most typically six or more standard errors. Correspondingly, a statistical test (e.g. a T-test) comparing repeated measurements of the signal with-repeated measurements of the background will result in a p-value<0.05, more typically a p-value<0.01, and most typically a p-value<0.001 or less. As noted, in an embodiment of the “G” assay, the signal from binding of a given PL peptide to immobilized (surface bound) GST polypeptide alone is one suitable negative control (sometimes referred to as “B 1”). Because all measurement are done in multiples (i.e. at least duplicate) the arithmetic mean (or, equivalently, average.) of several measurements is used in determining the binding, and the standard error of the mean is used in determining the probable error in the measurement of the binding. The standard error of the mean of N measurements equals the square root of the following: the sum of the squares of the difference between each measurement and the mean, divided by the product of (N) and (N−1). Thus, in one embodiment, specific binding of the PDZ protein to the platebound peptide is determined by comparing the mean signal (“mean S”) and standard error of the signal (“SE”) for a particular PL-PDZ combination with the mean B1.
(§4) For convenience, the assay conditions described in this section are referred to as the “G’ assay” and the “G” assay,” with the specific conditions described in the preceding section on G assays being referred to as the “G° assay.” The “G′ assay” is identical to the “G° assay” except at step (2) the peptide concentration is 10 uM instead of 20 uM. […]

[2] = biological target: T2, DLG1 domain 3 (Homo sapiens, UniProt Q12959); conditions: peptide 10 uM, protein 5
T2 construct: made in house; host or cells: E. coli (DH5alpha or BL-21)
Method: as §1, §2, §3, §4

[3] = biological target: T3, MAGI 1 domain 6 (Homo sapiens, UniProt Q96QZ7); conditions: peptide 10 uM, protein 5
T3 construct: made in house; host or cells: E. coli (DH5alpha, BL21 or JM109), vector pGEX-3X
Method: as §1, §2, §3, §4

[4] = biological target: T4, DLG2 #162.1 domain 2 (Homo sapiens, UniProt Q15700, K278N); conditions: peptide 10 uM, protein 5
T4 construct: made in house; host or cells: E. coli (DH5alpha, BL21 or JM109), vector pGEX-3X
Method: as §1, §2, §3, §4

[5] = biological target: T5, INADL domain 6 (Homo sapiens, UniProt Q8NI35, G1085V); conditions: peptide 10 uM, protein 5
T5 construct: made in house; host or cells: E. coli (DH5alpha, BL21 or JM109)
Method: as §1, §2, §3, §4

[6] = biological target: T6, TIAM 2 domain 1 (Homo sapiens, UniProt Q8IVF5); conditions: peptide 10 uM, protein 5
T6 construct: made in house; host or cells: E. coli (DH5alpha, BL21 or JM109)
Method: as §1, §2, §3, §4

[7] = biological target: T7, Shroom domain 1 (Homo sapiens, UniProt Q8TF72); conditions: peptide 10 uM, protein 5
T7 construct: made in house; host or cells: E. coli (DH5alpha or BL-21)
Method: as §1, §2, §3, §4

[8] = biological target: T8, X-11 beta domain 2 (Homo sapiens, UniProt Q99767); conditions: peptide 10 uM, protein 5
T8 construct: made in house; host or cells: E. coli (DH5alpha or BL-21)
Method: as §1, §2, §3, §4

[9] = biological target: T9, HEMBA 1003117 #193.3 domain 1 (Homo sapiens, UniProt Q96JH8); conditions: peptide 10 uM, protein 5
T9 construct: made in house; host or cells: E. coli (DH5alpha, BL21 or JM109)
Method: as §1, §2, §3, §4

[10] = biological target: T10, KIAA0973 #148.4 domain 1 (Homo sapiens, UniProt Q9Y2H9); conditions: peptide 10 uM, protein 5
T10 construct: made in house; host or cells: E. coli (DH5alpha, BL21 or JM109)
Method: as §1, §2, §3, §4

[11] = biological target: T11, APXL1 domain 1 (Homo sapiens, UniProt Q13796); conditions: peptide 10 uM, protein 5
T11 construct: made in house; host or cells: E. coli (DH5alpha, BL21 or JM109), vector pGEX-3X
Method: as §1, §2, §3, §4

[12] = biological target: T12, EBP50 #167.2 domain 1 (Homo sapiens, UniProt O14745); conditions: peptide 10 uM, protein 5
T12 construct: made in house; host or cells: E. coli (DH5alpha or BL-21)
Method: as §1, §2, §3, §4

[13] = biological target: T13, MAGI 1 domain 4 (Homo sapiens, UniProt Q96QZ7); conditions: peptide 10 uM, protein 5
T13 construct: made in house; host or cells: E. coli (DH5alpha, BL21 or JM109)
Method: as §1, §2, §3, §4

[14] = biological target: T14, TIP 43 #264.1 domain 1 (Homo sapiens, UniProt Q13884); conditions: vs GST only well, peptide 10 uM, protein 5
T14 construct: made in house; host or cells: E. coli (DH5alpha, BL21 or JM109)
Method: as §1, §2, §3, §4

T12 sequence (O14745 with tags, fused parts or gaps): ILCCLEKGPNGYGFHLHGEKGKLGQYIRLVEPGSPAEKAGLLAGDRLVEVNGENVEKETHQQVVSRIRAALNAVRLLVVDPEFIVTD
T4 sequence (Q15700 whole entry, looked up, the tested form differs by isoform, tags, fused parts or gaps, stated change not applied): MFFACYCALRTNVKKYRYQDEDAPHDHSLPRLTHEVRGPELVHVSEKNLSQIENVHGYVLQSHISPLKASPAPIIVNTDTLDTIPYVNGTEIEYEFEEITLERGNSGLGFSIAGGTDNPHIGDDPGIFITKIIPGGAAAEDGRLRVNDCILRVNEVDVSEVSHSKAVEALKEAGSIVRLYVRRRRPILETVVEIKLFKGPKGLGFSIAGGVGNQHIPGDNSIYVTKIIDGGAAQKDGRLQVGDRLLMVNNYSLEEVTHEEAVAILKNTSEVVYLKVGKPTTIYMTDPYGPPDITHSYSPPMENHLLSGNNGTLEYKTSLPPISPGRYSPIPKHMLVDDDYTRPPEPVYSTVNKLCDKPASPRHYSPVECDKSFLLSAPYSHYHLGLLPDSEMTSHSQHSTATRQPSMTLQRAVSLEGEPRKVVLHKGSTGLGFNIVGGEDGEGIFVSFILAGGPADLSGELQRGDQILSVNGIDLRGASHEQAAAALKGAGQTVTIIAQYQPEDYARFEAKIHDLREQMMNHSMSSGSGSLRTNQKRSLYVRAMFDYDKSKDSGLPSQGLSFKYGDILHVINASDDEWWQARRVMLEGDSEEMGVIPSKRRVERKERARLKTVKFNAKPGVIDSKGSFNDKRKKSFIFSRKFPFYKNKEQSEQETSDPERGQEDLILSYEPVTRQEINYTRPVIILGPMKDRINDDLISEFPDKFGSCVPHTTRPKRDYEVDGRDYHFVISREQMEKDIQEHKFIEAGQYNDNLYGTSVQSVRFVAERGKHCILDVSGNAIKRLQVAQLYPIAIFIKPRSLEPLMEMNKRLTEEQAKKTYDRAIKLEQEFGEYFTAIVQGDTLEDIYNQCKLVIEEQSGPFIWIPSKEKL
T10 sequence (Q9Y2H9 963-1055): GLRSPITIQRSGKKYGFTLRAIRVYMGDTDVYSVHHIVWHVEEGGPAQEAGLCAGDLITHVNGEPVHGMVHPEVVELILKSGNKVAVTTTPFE
T13 sequence (Q96QZ7 with tags, fused parts or gaps): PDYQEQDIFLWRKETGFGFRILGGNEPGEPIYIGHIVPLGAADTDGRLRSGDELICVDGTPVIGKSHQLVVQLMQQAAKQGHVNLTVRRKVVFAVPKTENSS
T8 sequence (Q99767 with tags, fused parts or gaps): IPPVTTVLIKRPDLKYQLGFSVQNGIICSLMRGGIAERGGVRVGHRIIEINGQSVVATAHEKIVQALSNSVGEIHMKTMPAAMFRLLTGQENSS
T11 sequence (Q13796 with tags, fused parts or gaps): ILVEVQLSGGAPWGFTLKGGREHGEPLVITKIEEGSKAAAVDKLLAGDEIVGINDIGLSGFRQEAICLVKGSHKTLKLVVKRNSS
T3 sequence (Q96QZ7 1143-1233): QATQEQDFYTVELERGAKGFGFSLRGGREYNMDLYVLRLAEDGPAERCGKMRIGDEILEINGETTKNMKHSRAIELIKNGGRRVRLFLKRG
T14 sequence (Q13884 106-201): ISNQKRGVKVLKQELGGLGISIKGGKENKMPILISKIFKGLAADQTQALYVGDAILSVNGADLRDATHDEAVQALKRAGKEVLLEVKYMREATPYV
T5 sequence (Q8NI35 with tags, fused parts or gaps G1085V): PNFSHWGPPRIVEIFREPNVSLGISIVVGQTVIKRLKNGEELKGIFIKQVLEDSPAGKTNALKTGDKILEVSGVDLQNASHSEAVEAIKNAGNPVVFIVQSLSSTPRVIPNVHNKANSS
T9 sequence (Q96JH8 969-1068): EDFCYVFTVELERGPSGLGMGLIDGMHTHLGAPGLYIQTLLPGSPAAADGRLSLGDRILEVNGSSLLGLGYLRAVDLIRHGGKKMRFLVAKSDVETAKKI
T7 sequence (Q8TF72 26-116): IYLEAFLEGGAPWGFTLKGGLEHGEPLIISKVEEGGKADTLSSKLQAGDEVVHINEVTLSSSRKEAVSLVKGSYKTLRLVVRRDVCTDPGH
T6 sequence (Q8IVF5 885-981): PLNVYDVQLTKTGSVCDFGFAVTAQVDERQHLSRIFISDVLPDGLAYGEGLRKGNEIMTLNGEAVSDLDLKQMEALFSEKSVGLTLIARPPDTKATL

With “20 mer peptide corresponding to the C-terminus of HPV16 E6 (PDZ ligand), biotinylated in binding assays; ends SSRTRRETQL (SEQ ID NO: 13) [HPV E6 #16]” the “Ave OD” value ([1]; A450 nm) was 0.3855, the “OD S/N” value ([1]; vs GST only well) was 1.96 and the “Ave OD” value ([2]; A450 nm) was 0.3975. The “OD S/N” value ([2]; vs GST only well) was 2.45, the “Ave OD” value ([3]; A450 nm) was 0.71 and the “OD S/N” value ([3]; vs GST only well) was 2.47. For the same substance, the “Ave OD” value ([4]; A450 nm) was 0.908 and 0.853, the “OD S/N” value ([4]; vs GST only well) was 3.87 and 3.05 and the “Ave OD” value ([5]; A450 nm) was 0.518. For the same substance, the “OD S/N” value ([5]; vs GST only well) was 3.07, the “Ave OD” value ([6]; A450 nm) was 0.356 and the “OD S/N” value ([6]; vs GST only well) was 2.05. For the same substance, the “Ave OD” value ([7]; A450 nm) was 0.361, the “OD S/N” value ([7]; vs GST only well) was 3.25 and the “Ave OD” value ([8]; A450 nm) was 0.4315 and 0.4265. The “OD S/N” value ([8]; vs GST only well) was 2.95 and 1.78, the “Ave OD” value ([9]; A450 nm) was 0.517 and the “OD S/N” value ([9]; vs GST only well) was 2.20. For the same substance, the “Ave OD” value ([10]; A450 nm) was 1.0105 and 0.6885, the “OD S/N” value ([10]; vs GST only well) was 6.22 and 5.12 and the “Ave OD” value ([11]; A450 nm) was 0.4605 and 0.708. For the same substance, the “OD S/N” value ([11]; vs GST only well) was 3.14 and 2.96, the “Ave OD” value ([12]; A450 nm) was 0.3805 and 0.3555 and the “OD S/N” value ([12]; vs GST only well) was 1.94 and 2.28. The “Ave OD” value ([13]; A450 nm) was 0.395 and 0.496, the “OD S/N” value ([13]; vs GST only well) was 1.20 and 1.58 and the “OD S/N” value [14] was 8.50 and 8.76.
